The assay has as its system rabbit osteoarthritis model. Description: Pathology suppressing effect in a rabbit osteoarthritis model. Type of assay: in vivo. The following applies: 3.0 mmol/L, vs solvent alone. How it is done:
Rabbit osteoarthritis model was prepared using 12-week-old male NZW rabbits (Kitayama Labes Co., Ltd.), and performing partial menisectomy in right knee, and excision of the lateral collateral ligament and sesamoid ligament, according to the method of Colombo et al. (Arthritis Rheum. 26(7):875-886, 1983). Beginning on the 7th day after the operation, 500 μL of a 50% dimethylsulfoxide (DMSO) physiological saline solution (DMSO: Junsei Chemical Corp., physiological saline: Otsuka Pharmaceutical Corp.) or 3.0 mmol/L of compound A solution was intraarticularly administered once a day into the right knee joint for a period of 3 weeks. The daily dosage of compound A was 816.8 μg.
On the day following the day of final administration, the right femoral distal and crural proximal sections were taken, and the femur was immersed overnight in 2% paraformaldehyde-2.5% glutaraldehyde fixing solution (both by Wako Pure Chemical Industries) for fixation, while the crus was immersed for one week in 20% neutral buffered formalin (Wako Pure Chemical Industries) for fixation.
After post-fixation of the femoral distal section with 1% osmium solution (Wako Pure Chemical Industries), it was dipped in an increasing ethanol series for dehydrogenation, and then substituted with isoamyl acetate and subsequently dried with a critical point drying apparatus (Hitachi Co., Ltd.). The dried tissue surface was coated with gold using an ion sputter coating apparatus (Eiko Corp.), and the femoral condyle cartilage surface was observed using a scanning electron microscope (Hitachi Co., Ltd.) (FIGS. 15A and 15B). The area of the damaged sections of the articular cartilage in the electron photomicrograph was measured using IPAP image analysis software (Sumika Technoservice Co., Ltd.), and judged on the scale shown in Table 11 below.
The proximal region of tibia was trimmed with a band saw (EXAKT Corp.) and then demineralized for 4 weeks with 20% EDTA-4Na solution (pH 7.4, Wako Pure Chemical Industries). […]

Setting [1] is: 500 μL intraarticular once a day for 3 weeks from day 7 after operation.

As to `CCOC(CN1C(=O)[C@](CC(=O)Nc2ccc(C)cc2)(NC(=O)Nc2ccc(C)cc2)c2ccccc21)OCC` [Compound A, (+)-1-(2,2-diethoxyethyl)-3-((4-methylphenyl)aminocarbonylmethyl)-3-(N′-(4-methylphenyl)ureido)indolin-2-one], under setting [1], the “medium grade lesion area of articular cartilage (scanning electron microscope)” value is recorded as “significantly smaller area of damage” and the “total lesion area of articular cartilage (scanning electron microscope)” value is given as “significantly smaller area of damage”. Further, the “total histological scores, except for the loss of superficial layer” value (500 μL intraarticular once a day for 3 weeks, Safranin O stained tibia sections) was “significantly lower”.

For the origin of these results see patent US6716628B2, “Chondrogenesis promoters and indolin-2-one derivatives” (Chugai Seiyaku Kabushiki Kaisha, priority 1999, dated 2004).
